Data as given in US8114872B2, “Triazolyl aminopyrimidine compounds” (Eli Lilly and Company, priority 2007, dated 2012).
Read-outs that look alike come from different tables or passages of the source.

How the values were obtained:
[1] = system: HeLa Cells; assay: pHH3(S10), Mitotic Cells, and DNA Content Assays; assay type: cell-based; settings: Homo sapiens, 23 hours exposure
Description: HeLa Cells are plated at 200 cells/well in 96 well […] Dickinson BIOCOAT™ plates, and are incubated in MEM (Minimum Essential Medium) with 10% FBS (Fetal Bovine Serum) in 37° C., 5% CO2 for 24 hours. Cells are treated by adding compound (in 0.25% DMSO) to the medium, dosing at 10 points across the range […] to 0.0098 μM. After 23 hours exposure to the compounds, cells are fixed, for example with the PREFER™ fixative for 30 min then are permeabilized with 0.1% TRITON® X100 in phosphate buffered saline (PBS) solution for 15 min. Cells are washed 3 times with PBS then digested with 50 μg/mL RNAse. Primary antibody, phosphohistone H3, is added at 1:500 in PBS with 1% bovine serum albumin (BSA) to the cells over night at 4° C. After 3 PBS washes, cells are incubated with Alexa488 labeled secondary antibody for 1 hour at RT. Again they are washed 3 times with PBS, and then 15 μM propidium iodide is added for 30 min to stain nuclei. Fluorescence Plates are scanned with ACUMEN EXPLORER™ [Laser-scanning fluorescence microplate cytometer (comprising of 488 nm argon ion laser excitation and multiple photomultiplier tube detection), manufactured by TTP LABTECH LTD] to measure anti-phosphohistone H3 Serine 10, DNA content and mitotic cells as measured by DNA condensation. Image analysis are based on cellular fluorescent signals for identifying cells in different subpopulations. pHH3(S10) positive cells are identified by mean intensity at 500-530 nm above the threshold. Total intensity at 655-705 nm from propidium iodide/DNA is used to identify individual cells (cells with DNA content from 2N to 4N) and subpopulations in cell cycle (2N cells, 4N cells). Peak intensity at 575-640 nm is used to identify DNA condensation that is used as the marker to identify mitotic cells among 4N cells. Assay outputs are percentage of each identified subpopulations, % pHH3, % 2N, % 4N, % mitotic and total cell number. The EC50 is determined by curve fitting to a four parameter logistic for each output using ACTIVITY BASE™.

[2] = system: HCT116 cells; assay: Antiproliferative Assay (Alamar Blue); assay type: cell-based; settings: Homo sapiens, HCT-116, e.g. 72 hours exposure, n=2, MSR 3.1, racemate, read-out: average IC50 (cell proliferation)
Description: The effects of compounds on cell proliferation can be determined using cells and cell proliferation methods well-known in the art (Robert C. Squatrito et al., Gynecological Oncology, 58, 101-105, (1995)). For example, HCT116 cells, which may be obtained from the American Type Culture Collection, may be seeded at ˜2000 cells/well in 96-well plates and allowed to attach overnight in a humidified CO2 incubator at 37° C. Following the 20-24 hour incubation, half-log serially diluted compounds are added and the plates are returned to the incubator. After an appropriate length of exposure (e.g., 72 hours), cell proliferation is estimated using well-known methods. In one method, 10 μL of a tetrazolium salt, such as Alamar Blue™ is added to the cell plates. After an appropriate exposure to the dye, fluorescence (530 nm excitation, 580 nm emission) is determined.

[3] = molecular target: T1, Plk1-Flag-His6 tag fusion enzyme (Human Plk1) (Homo sapiens, UniProt P53350); assay: Plk1 Inhibition Assay (33P-ATP filter plate kinase reaction, GST-Cdc25C(1-206) substrate); assay type: biochemical; settings: 5.0 μM ATP, RT 60 min; MSR 3.6; racemate; read-out: Plk1 IC50 (absolute IC50)
T1 construct: made in house; host or cells: Sf9 insect cells (baculovirus, pFastBac vector); substrate in E. coli BL21 (pGEX-2T)
Source text: Human Plk1 cDNA may be directly linked at one of its termini with a polynucleotide sequence expressing a His6 tag, such as the C-terminal FLAG-His6 tag, and inserted into an appropriate expression vector, such as a pFastBac™ vector (Invitrogen) and transfected into an appropriate system, such as baculovirus similar to what has been reported by Yue-Wei Qian, et al., Science, 282, 1701 (1998) for xPlk1. If a viral expression system is used, then the virus (e.g., baculovirus bearing a Plk1-Flag-His6 tag polynucleotide construct) is infected into a culture of a suitable host cell, such as Sf9 cells. […]
Plk1 kinase reactions contain Plk1-Flag-His6 tag fusion enzyme (0.2 ng/μL) in a buffer containing 50 mM HEPES, pH 7.3, 1.0 mM dithiothreitol, 5.0 μM ATP, 10 mM MgCl2, 0.01% TRITON® X-100, 0.4 μCi ^33P-ATP, and 0.06 μg/μL GST-Cdc25c (1-206) peptide. […] Wells are dried before addition of 40 μL of MicroScintTM20 (Packard) and then counted on a Wallac MICROBETA® Jet. The percentage inhibition values from the 10-point concentration response data are subsequently analyzed, for example, using ACTIVITY BASE™ software (IDBS), using a 4-parameter logistic equation. Absolute IC50 values are calculated from the resulting curve fit.

[4] = in man, cited from earlier work
[5] = system: HCT116, A549 and NCIH460 murine xenografts; settings: cited from earlier work

T1 sequence (P53350 whole entry, the tested form may be a part): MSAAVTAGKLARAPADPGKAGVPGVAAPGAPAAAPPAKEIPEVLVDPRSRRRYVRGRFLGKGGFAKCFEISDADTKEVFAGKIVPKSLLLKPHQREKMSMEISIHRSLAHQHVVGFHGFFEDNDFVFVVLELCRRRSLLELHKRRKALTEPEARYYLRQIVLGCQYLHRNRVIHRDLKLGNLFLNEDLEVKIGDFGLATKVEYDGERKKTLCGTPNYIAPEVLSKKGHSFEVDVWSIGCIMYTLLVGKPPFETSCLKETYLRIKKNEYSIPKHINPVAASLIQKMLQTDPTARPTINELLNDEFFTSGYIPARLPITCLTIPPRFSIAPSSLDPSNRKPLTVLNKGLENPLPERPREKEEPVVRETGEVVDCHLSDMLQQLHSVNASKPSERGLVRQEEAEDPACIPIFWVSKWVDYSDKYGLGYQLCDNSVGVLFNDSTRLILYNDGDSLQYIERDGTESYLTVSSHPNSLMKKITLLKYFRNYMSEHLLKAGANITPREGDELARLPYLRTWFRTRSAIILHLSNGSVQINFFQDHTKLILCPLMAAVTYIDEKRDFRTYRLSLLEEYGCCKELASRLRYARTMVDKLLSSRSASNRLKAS

| Compound | EC50 ([1]; MSR 2.4, racemate, read-out: DNA content EC50) [nM] | EC50 ([1]; MSR 2.5, racemate, read-out: mitotic EC50) [nM] | EC50 ([1]; MSR 2.6, racemate, read-out: pHH3(s10) EC50) [nM] | IC50 [2] [nM] | IC50 [3] [nM] | dose-limiting toxicity ([4]; phase II clinical trials) | clearance (CL) [4] [mL/min] | activity in preclinical xenograft models [5] |
| --- | --- | --- | --- | --- | --- | --- | --- | --- |
| CC(N)c1cnc(F)cc1-c1cccc2cc(-c3nc(NCCn4ccnn4)ncc3F)sc12 (racemic) [Example 41, N-(2-(1H-1,2,3-Triazol-1-yl)ethyl)-4-(7-(5-(1-aminoethyl)-2-fluoropyridin-4-yl)benzo[b]thiophen-2-yl)-5-fluoropyrimidin-2-amine] | 30 | 23 | 25 | 31 | 12 | – | – | – |
| CC[C@@H]1C(=O)N(C)c2cnc(Nc3ccc(C(=O)NC4CCN(C)CC4)cc3OC)nc2N1C1CCCC1 [BI-2536] | – | – | – | – | – | dose limited by myelosupression | > 1000 | demonstrated activity |
